Measured values taken from patent publication US20170283396A1, “DIAMINOHETEROARYL SUBSTITUTED INDAZOLES” (Bayer Pharma Aktiengesellschaft, priority 2013, published 2017).
Like-named read-outs stand apart in the source and are kept apart here.

What was measured:
[1] = molecular target: T1, catalytic domain of human Bub1 (amino acids 704-1085) (Homo sapiens, UniProt O43683); test: Bub1 kinase assay (TR-FRET); type: biochemical
T1 construct: catalytic domain of human Bub1 (amino acids 704-1085); His6 (N); made in house; host or cells: Hi5 insect cells
Procedure: To this end, 100-fold concentrated compound solutions (in DMSO) were previously prepared by serial dilution (1:3.4) of 2 mM stocks in a clear low volume 384-well source microtiter plate (Greiner Bio-One, Frickenhausen, Germany), from which 50 nl of compounds were transferred into a black low volume test microtiter plate from the same supplier. […] The resulting mixture (5 μL final volume) was incubated at […] during 60 min., and the reaction was stopped by the addition of 5 μL of an aqueous EDTA-solution (50 mM EDTA, in 100 mM HEPES pH 7.5 and 0.2% (w/v) bovine serum albumin) which also contained the TR-FRET detection reagents (0.2 μM streptavidin-XL665 [Cisbio Bioassays, Codolet, France] and 1 nM anti-phosho-Serine antibody [Merck Millipore, cat. #35-001] and 0.4 nM LANCE EU-W1024 labeled anti-mouse IgG antibody [Perkin-Elmer, product no. AD0077, alternatively a Terbium-cryptate-labeled anti-mouse IgG antibody from Cisbio Bioassays can be used]). The stopped reaction mixture was further incubated 1 h at 22° C. in order to allow the formation of complexes between peptides and detection reagents. Subsequently, the amount of product was evaluated by measurement of the resonance energy transfer from the Eu-chelate-antibody complex recognizing the Phosphoserine residue to the streptavidin-XL665 bound to the biotin moiety of the peptide. […] IC50 values were calculated by fitting the normalized inhibition data to a 4-parameter logistic equation (Minimum, Maximum, IC50, Hill; Y=Max+(Min−Max)/(1+(X/IC50)Hill)).

HeLa cell line = test: Proliferation assay (HeLa cell line); type: cell-based; conditions: Homo sapiens, 96 h, read-out: Biological Assay 2: Proliferation assay (HeLa cell line) median IC50
Procedure: Cultivated tumor cells (cells were ordered from ATCC, except HeLa-MaTu and HeLa-MaTu-ADR, which were ordered from EPO-GmbH, Berlin) were plated at a density of 1000 to 5000 cells/well, depending on the growth rate of the respective cell line, in a 96-well multititer plate in 200 μL of their respective growth medium supplemented 10% fetal calf serum. After 24 hours, the cells of one plate (zero-point plate) were stained with crystal violet (see below), while the medium of the other plates was replaced by fresh culture medium (200 μL), to which the test substances were added in various concentrations (0 μM, as well as in the range of 0.001-10 μM; the final concentration of the solvent dimethyl sulfoxide was 0.5%). The cells were incubated for 4 days in the presence of test substances. Cell proliferation was determined by staining the cells with crystal violet: the cells were fixed by adding 20 μl/measuring point of an 11% glutaric aldehyde solution for 15 minutes at room temperature. After three washing cycles of the fixed cells with water, the plates were dried at room temperature. The cells were stained by adding 100 μl/measuring point of a 0.1% crystal violet solution (pH 3.0). After three washing cycles of the stained cells with water, the plates were dried at room temperature. The dye was dissolved by adding 100 μl/measuring point of a 10% acetic acid solution. Absorption was determined by photometry at a wavelength of 595 nm. The change of cell number, in percent, was calculated by normalization of the measured values to the absorption values of the zero-point plate (=0%) and the absorption of the untreated (0 μm) cells (=100%). The IC50 values were determined by means of a 4 parameter fit using the company's own software.

[2] = TR-FRET, 10 μM ATP, 1 μM peptide substrate, read-out: Biological Assay 1: Bub1 kinase assay median IC50
[3] = cervical cancer, 4 days incubation, crystal violet staining

T1 sequence (O43683 704-1085): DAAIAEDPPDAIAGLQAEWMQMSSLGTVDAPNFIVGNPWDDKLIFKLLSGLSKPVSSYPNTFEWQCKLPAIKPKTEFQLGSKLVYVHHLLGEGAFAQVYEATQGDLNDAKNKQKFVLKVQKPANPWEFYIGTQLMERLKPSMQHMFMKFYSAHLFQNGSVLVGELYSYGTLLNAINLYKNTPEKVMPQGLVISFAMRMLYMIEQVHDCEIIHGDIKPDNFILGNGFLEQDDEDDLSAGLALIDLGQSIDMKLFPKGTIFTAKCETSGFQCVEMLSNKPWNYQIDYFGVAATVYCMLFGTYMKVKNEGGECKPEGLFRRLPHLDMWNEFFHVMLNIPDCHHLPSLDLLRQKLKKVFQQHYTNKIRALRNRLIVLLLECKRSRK

SMILES	IC50 [1, 2]	IC50 (HeLa cell line)	IC50 [1]	IC50 (HeLa cell line; [3])
Nc1cc(Nc2ccncc2)nc(-c2nn(Cc3ccccc3F)c3ccccc23)n1 [Example 2-1-1, 2-[1-(2-fluorobenzyl)-1H-indazol-3-yl]-N-(pyridin-4-yl)pyrimidine-4,6-diamine]	19 nM	3600 nM	–	–
CC(=O)Nc1cc(Nc2ccncc2)nc(-c2nn(Cc3ccccc3F)c3ccccc23)n1 [Example 2-2-1, N-{2-[1-(2-fluorobenzyl)-1H-indazol-3-yl]-6-(pyridin-4-ylamino)pyrimidin-4-yl}acetamide]	–	–	> 20000 nM	≥ 10000 nM
COCC(=O)Nc1cc(Nc2ccncc2)nc(-c2nn(Cc3ccccc3F)c3ccccc23)n1 [Example 2-2-2, N-{2-[1-(2-fluorobenzyl)-1H-indazol-3-yl]-6-(pyridin-4-ylamino)pyrimidin-4-yl}-2-methoxyacetamide]	96 nM	≥ 10000 nM	–	–
CC(=O)Nc1cc(N(c2ccncc2)c2ccncc2)nc(-c2nn(Cc3ccccc3F)c3ccccc23)n1 [Example 2-2-3, N-{6-(dipyridin-4-ylamino)-2-[1-(2-fluorobenzyl)-1H-indazol-3-yl]-pyrimidin-4-yl}acetamide]	18000 nM	–	–	–
COCC(=O)Nc1cc(N(c2ccncc2)c2ccncc2)nc(-c2nn(Cc3ccccc3F)c3ccccc23)n1 [Example 2-2-4, N-{6-(dipyridin-4-ylamino)-2-[1-(2-fluorobenzyl)-1H-indazol-3-yl]pyrimidin-4-yl}-2-methoxyacetamide]	–	–	> 20000 nM	–
CCOc1cc(F)c(Cn2nc(-c3nc(N)cc(Nc4ccncc4)n3)c3ccccc32)c(F)c1 [Example 2-3-1, 2-[1-(4-ethoxy-2,6-difluorobenzyl)-1H-indazol-3-yl]-N-(pyridin-4-yl)pyrimidine-4,6-diamine]	6.4 nM	1300 nM	–	–
CCOc1cc(F)c(Cn2nc(-c3nc(N)c(OC)c(Nc4ccncc4)n3)c3ccccc32)c(F)c1 [Example 2-3-2, 2-[1-(4-ethoxy-2,6-difluorobenzyl)-1H-indazol-3-yl]-5-methoxy-N-(pyridin-4-yl)pyrimidine-4,6-diamine]	8.3 nM	3800 nM	–	–
CCOc1cc(F)c(Cn2nc(-c3nc(N)c(N4CCOCC4)c(Nc4ccncc4)n3)c3ccccc32)c(F)c1 [Example 2-3-3, 2-[1-(4-ethoxy-2,6-difluorobenzyl)-1H-indazol-3-yl]-5-(morpholin-4-yl)-N-(pyridin-4-yl)pyrimidine-4,6-diamine]	4.3 nM	3600 nM	–	–
CCNC(=O)Nc1nc(-c2nn(Cc3c(F)cc(OCC)cc3F)c3ccccc23)nc(Nc2ccncc2)c1N1CCOCC1 [Example 2-3-4, 1-{2-[1-(4-ethoxy-2,6-difluorobenzyl)-1H-indazol-3-yl]-5-(morpholin-4-yl)-6-(pyridin-4-ylamino)pyrimidin-4-yl}-3-ethylurea]	–	–	130 nM	≥ 10000 nM
CCOc1cc(F)c(Cn2nc(-c3nc(N)cc(Nc4ccncn4)n3)c3ccccc32)c(F)c1 [Example 2-3-5, 2-[1-(4-ethoxy-2,6-difluorobenzyl)-1H-indazol-3-yl]-N-(pyrimidin-4-yl)pyrimidine-4,6-diamine]	5.3 nM	7800 nM	–	–

Further lines, results first:

IC50 [1, 2]	IC50 (HeLa cell line)	IC50 [1]	IC50 (HeLa cell line; [3])	SMILES
6.5 nM	–	–	–	CCOc1cc(F)c(Cn2nc(-c3nc(N)c(OC)c(Nc4ccncn4)n3)c3ccccc32)c(F)c1 [Example 2-3-6, 2-[1-(4-ethoxy-2,6-difluorobenzyl)-1H-indazol-3-yl]-5-methoxy-N-(pyrimidin-4-yl)pyrimidine-4,6-diamine]
6.6 nM	9000 nM	–	–	CCOc1cc(F)c(Cn2nc(-c3nc(N)c(N4CCOCC4)c(Nc4ccncn4)n3)c3ccccc32)c(F)c1 [Example 2-3-7, 2-[1-(4-ethoxy-2,6-difluorobenzyl)-1H-indazol-3-yl]-5-(morpholin-4-yl)-N-(pyrimidin-4-yl)pyrimidine-4,6-diamine]
–	–	280 nM	> 10000 nM	CCNC(=O)Nc1nc(-c2nn(Cc3c(F)cc(OCC)cc3F)c3ccccc23)nc(Nc2ccncn2)c1N1CCOCC1 [Example 2-3-8, 1-{2-[1-(4-ethoxy-2,6-difluorobenzyl)-1H-indazol-3-yl]-5-(morpholin-4-yl)-6-(pyrimidin-4-ylamino)pyrimidin-4-yl}-3-ethylurea]
5.8 nM	2900 nM	–	–	CCOc1cc(F)c(Cn2nc(-c3nc(N)nc(Nc4ccncc4)n3)c3ccccc32)c(F)c1 [Example 2-3-9, 6-[1-(4-ethoxy-2,6-difluorobenzyl)-1H-indazol-3-yl]-N-(pyridin-4-yl)-1,3,5-triazine-2,4-diamine]
7.2 nM	3900 nM	–	–	CCOc1cc(F)c(Cn2nc(-c3nc(N)c(OCCOC)c(Nc4ccncc4)n3)c3ccccc32)c(F)c1 [Example 2-3-10, 2-[1-(4-ethoxy-2,6-difluorobenzyl)-1H-indazol-3-yl]-5-(2-methoxyethoxy)-N-(pyridin-4-yl)pyrimidine-4,6-diamine]
5.2 nM	3700 nM	–	–	CCOc1cc(F)c(Cn2nc(-c3nc(N)c(OCCOC)c(Nc4ccncn4)n3)c3ccccc32)c(F)c1 [Example 2-3-11, 2-[1-(4-ethoxy-2,6-difluorobenzyl)-1H-indazol-3-yl]-5-(2-methoxyethoxy)-N-(pyrimidin-4-yl)pyrimidine-4,6-diamine]
11 nM	7800 nM	–	–	CCOc1cc(F)c(Cn2nc(-c3nc(N)c(NC(=O)COC)c(Nc4ccncc4)n3)c3ccccc32)c(F)c1 [Example 2-3-13, N-{4-amino-2-[1-(4-ethoxy-2,6-difluorobenzyl)-1H-indazol-3-yl]-6-(pyridin-4-ylamino)pyrimidin-5-yl}-2-methoxyacetamide]
81 nM	–	–	–	CCOc1cc(F)c(Cn2nc(-c3nc(Nc4ccncc4)cc(Nc4ccncc4)n3)c3ccccc32)c(F)c1 [Example 2-4-1, 2-[1-(4-ethoxy-2,6-difluorobenzyl)-1H-indazol-3-yl]-N,N′-di(pyridine-4-yl)pyrimidine-4,6-diamine]
–	–	98 nM	–	CCOc1cc(F)c(Cn2nc(-c3nc(Nc4ccncn4)c(N4CCOCC4)c(Nc4ccncn4)n3)c3ccccc32)c(F)c1 [Example 2-4-4, 2-[1-(4-ethoxy-2,6-difluorobenzyl)-1H-indazol-3-yl]-5-(morpholin-4-yl)-N,N′-di(pyrimidin-4-yl)pyrimidine-4,6-diamine]
–	–	–	≥ 10000 nM	CCOc1cc(F)c(Cn2nc(-c3nc(Nc4ccncc4)c(OCCOC)c(Nc4ccncc4)n3)c3ccccc32)c(F)c1 [Example 2-4-6, 2-[1-(4-ethoxy-2,6-difluorobenzyl)-1H-indazol-3-yl]-5-(2-methoxyethoxy)-N,N′-di(pyridin-4-yl)pyrimidine-4,6-diamine]
–	–	–	≥ 10000 nM	CCOc1cc(F)c(Cn2nc(-c3nc(Nc4ccncn4)c(OCCOC)c(Nc4ccncn4)n3)c3ccccc32)c(F)c1 [Example 2-4-7, 2-[1-(4-ethoxy-2,6-difluorobenzyl)-1H-indazol-3-yl]-5-(2-methoxyethoxy)-N,N′-di(pyrimidin-4-yl)pyrimidine-4,6-diamine]
2100 nM	–	–	–	CCOc1cc(F)c(Cn2nc(-c3nc(Nc4ccncc4)c(NS(=O)(=O)C(F)(F)F)c(Nc4ccncc4)n3)c3ccccc32)c(F)c1 [Example 2-4-11, N-{2-[1-(4-ethoxy-2,6-difluorobenzyl)-1H-indazol-3-yl]-4,6-bis(pyridin-4-ylamino)pyrimidin-5-yl}-1,1,1-trifluoromethanesulfonamide]
